Reference: patent publication US20200345725A1, “Methods and Compositions for Treating Cancer” (Omeros Corporation, priority 2019, published 2020)

Columns and labels:
Assay type in all cases: cell-based
WT GPR174 = molecular target: T1, WT GPR174 (Homo sapiens, UniProt Q9BXC1); assay: Inhibition of PS-induced GPR174 Gs signaling (GloSensor), HEK293 stably transfected with WT GPR174
T1 construct: expressed in transfected cells; host or cells: HEK293
Method: The signaling experiment was conducted as described for FIG. 45, but instead of transient transfection a pool of HEK293 cells stably transfected with either WT GPR174 (for compound 10, as shown in FIG. 47A) or GPR174-v38 for the rest of the tested compounds, as shown in FIGS. 47B-47F)) and GloSensor cAMP biosensor was used. A dilution series of each of the GPR174 inhibitory compounds 10 (Group I), 6 (Group I), 11 (Group I), 20 (Group II), 23 (Group IV), and 30 (Group IV) were prepared in DMSO. After the plates were pre-read in a luminometer, 1 μL of the compound dilution was added per well (with control wells receiving 1 μL of DMSO) followed by addition of PS liposomes to the final concentration of 1 μM. Plates were read in a luminometer after 15 minutes of incubation. The ratio of luminescence after PS addition to the pre-read luminescence value was used as a measure of receptor-mediated signaling.

human T cells = assay: PD-L1, TIGIT and AREG expression on human T cells in PBMC; details: 1.25 or 5 μM; one day post-stimulation
Method: PBMC cells from a single donor mixed with additional irradiated antigen-presenting cells (APC) and anti-CD3 antibodies (UCHT1) were incubated in the presence of various concentrations of GPR174 inhibitory compound 10 (1.25 to 5 μM) or equivalent concentrations of vehicle (DMSO). The cells were analyzed by flow cytometry for expression of CD4, CD8, PD-L1, TIGIT and AREG.

human PBMC = assay: IL-2 in supernatants of human PBMC stimulated with anti-CD3 and anti-CD28, ELISA; details: human PBMC donor 8, 24 hours post-stimulation; compound 10 1 μM, ZM-241385 0.1 μM, APCP 10 μM; FIG. 71
Method: Human PBMCs, obtained from a human volunteer donor (donor 8), were dispensed in X-vivo15 media (Lonza) supplemented with Glutamax, penicillin and streptomycin, at density of 1×10^6 cells/well in a 96-well flat-bottom plate and were cultured in quadruplicate for 3 hours in the presence of:
GPR174 inhibitory compound 10 (1 μM);
CD73 inhibitory compound, adenosine 5′-(a,p-methylene)diphosphate sodium salt (APCP, Tocris, 10 μM);
Combinations of the above agents;
After which 1 μg/mL anti-CD3 antibody (UCHT1) and 0.1 μg/mL anti-CD28 antibody (CD28.2) were added to activate T cells. Supernatants from these cells were collected at 24 hours post-stimulation and the levels of IL-2 were determined by ELISA.

T1 sequence (Q9BXC1 whole entry): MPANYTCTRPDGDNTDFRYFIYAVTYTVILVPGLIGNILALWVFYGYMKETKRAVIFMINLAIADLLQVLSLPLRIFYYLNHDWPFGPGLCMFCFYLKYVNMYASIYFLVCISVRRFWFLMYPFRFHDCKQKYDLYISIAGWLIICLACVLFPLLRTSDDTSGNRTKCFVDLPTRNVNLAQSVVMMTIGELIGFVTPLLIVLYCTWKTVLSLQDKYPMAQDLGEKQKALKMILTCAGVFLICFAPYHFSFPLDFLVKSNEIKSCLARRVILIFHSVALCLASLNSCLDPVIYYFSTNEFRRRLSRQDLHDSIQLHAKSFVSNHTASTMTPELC

CC1CCN(c2cc(N3CCN(S(=O)(=O)c4ccccc4)CC3)c([N+](=O)[O-])cc2F)CC1 [compound 10]
PS-mediated GPR174 Gs signaling (FIG. 47A) (WT GPR174; PS liposomes 1 μM): inhibited | IC50 (WT GPR174; PS liposomes 1 μM, WT GPR174, read-out: apparent IC50, inhibition of PS-induced GPR174 Gs signaling): 20 to 40 nM | inhibition of the PS signaling through the GPR174 receptor (WT GPR174; at concentrations of 1-2 μM): almost complete inhibition | AREG expression in CD4+ T cells (human T cells): reduced | PD-L1 expression in CD4+ T cells (human T cells): reduced | TIGIT expression in CD8+ T cells (human T cells): reduced | increase of IL-2 levels (human PBMC): 1.4 fold
